Series [1] can be described thus: PET imaging of mice. The following applies: FIG. 3F.
Protocol: microPET/CT: mice and rats were anesthetized with isoflurane and positioned in the bed of a microPET/CT instrument. […] Animals were imaged using dynamic PET from 0 to 120 min to provide greatest contrast.
Data analysis: PET images were reconstructed using the scanner software and a rat brain atlas automatically fitted to the data using VivoQuant. Time activity curves (TACs) were extracted for multiple brain regions and spinal cord segments (lumbar, thoracic and cervical cord).
The nature of series [2]: PET imaging in rhesus macaques, baseline and gabapentin blocking scan. Conditions: for specific (displaceable) binding in brain by PET: coinjection of gabapentin (5 mg/kg); for brain penetration by PET: ~5 mCi i.v.
Description: General imaging procedure: The rhesus monkey was sedated by intramuscular injection of ketamine in its housing facility. Following sedation, the animal was intubated and placed inside a primate transport cart. The animal was transported to the scanner room and laid on the scanner bed in supine position. […] Vital signs including heart rate, respiratory rate, SpO2, exhaled CO2, blood pressure and temperature were continuously monitored for the duration of the scan. One intravenous catheter was placed in the saphenous vein for administration of the tracer. One intraarterial catheter was placed in the posterior tibial artery for blood sampling. […] Selected plasma samples were analyzed for radiometabolites using radioHPLC. MRI was coregistered to the PET/CT and TACs extracted for each brain region defined on an MR atlas.
Study design: We scanned two male rhesus macaques. Each monkey was scanned two times. In the first session, we performed 3h dynamic scans (baseline) of each monkey. On the second session, the monkey underwent a blocking scan with coinjection of gabapentin (5 mg/kg).
Data analysis: Pharmacokinetic modeling using metabolite-corrected arterial input function was performed. Volume of distribution (VT), binding potential (BP) other parameters were calculated.
The conditions of series [3]: cited from earlier work; for patients with decreases in self-reported pain: oral.

Where two headings read alike, the source gives them in different places.

Regarding `NCC1(CC(=O)O)CCC(F)CC1` (stereo not drawn) [cis-4F-GBP], in series [1], the “brain entry by PET” value is listed as “get into the brain”.
Regarding `NC[C@]1(CC(=O)O)CC[C@H]([18F])CC1` [cis-[^18F]4F-GBP, cis-[^18F]4-fluoro-gabapentin], in series [2], the “specific (displaceable) binding in brain by PET” value is “clear specific (displaceable) binding” and the “brain penetration by PET” value is given as “significant brain penetration”. Further, the “specific (displaceable) binding in brain by PET” value in series [2] (listed as cis isomer) is given as “partial displacement”.
For `NCC1(CC(=O)O)CCCCC1` [gabapentin], the “patients with decreases in self-reported pain” value in series [3] (diabetic neuropathy) is 52%; in series [3] (postherpetic neuralgia), 46%. Besides, the “subjects with reduction in facial pain” value in series [3] (trigeminal neuralgia, 43 out of 92 subjects) is 46%.
With `NC[C@]1(CC(=O)O)CC[C@@H](F)CC1` [trans-4F-GBP], the “brain entry by PET” value in series [1] is reported as “get into the brain”.
With `NCC1(CC(=O)O)CCC([18F])CC1` (stereo not drawn) [trans-[^18F]4F-GBP, trans-[^18F]4-fluoro-gabapentin], the “brain penetration by PET” value in series [2] was “significant brain penetration”.

(Values after US20230150922A1, “Fluorinated Derivatives of Gabapentin and Methods of Use Thereof” (The General Hospital Corporation, priority 2020, published 2023).)
